In PubChem BioAssay AID192 (DTP/NCI, 2004):
Values joined by “and” are separate entries in the source; they are usually repeats but may differ in a detail not shown here. Equal entries are not always repeated. Inconclusive results and toxic doses are left out. Peptide text beside a SMILES is read from it. * marks the point of attachment. Trt = c1ccc(C(c2ccccc2)(c2ccccc2)*)cc1; Cbz = O=C(OCc1ccccc1)*

System: BDF1 mice, B16 melanoma ip, median survival T/C
Assay: NCI In Vivo Anticancer Drug Screen. Data for tumor model B16 Melanoma (intraperitoneal) in B6D2F1 (BDF1) mice
Details: endpoint: median survival time, higher = longer survival
Outline: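 Survival or tumor size is measured after treatment of tumor-bearing mice and normalised to the vehicle-treated control group.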

[1] = dose: 50.0 mg/kg/injection, schedule: Q01DX009 (ip), vehicle: saline
[2] = dose: 100.0 mg/kg/injection, schedule: Q01DX009 (ip), vehicle: saline
[3] = dose: 100.0 mg/kg/injection, schedule: Q01DX009 (ip), vehicle: saline with Tween-80
[4] = dose: 200.0 mg/kg/injection, schedule: Q01DX009 (ip), vehicle: saline with Tween-80
[5] = dose: 1.56 mg/kg/injection, schedule: Q01DX009 (ip), vehicle: Klucel (hydroxypropylcellulose) (HPC)
[6] = dose: 25.0 mg/kg/injection, schedule: Q01DX009 (ip), vehicle: Klucel (hydroxypropylcellulose) (HPC)
[7] = dose: 0.25 mg/kg/injection, schedule: Q01DX009 (ip), vehicle: saline
[8] = dose: 0.5 mg/kg/injection, schedule: Q01DX009 (ip), vehicle: saline
[9] = dose: 100.0 mg/kg/injection, schedule: Q01DX009 (ip), vehicle: Klucel (hydroxypropylcellulose) (HPC)
[10] = dose: 6.25 mg/kg/injection, schedule: Q01DX009 (ip), vehicle: saline
[11] = dose: 12.5 mg/kg/injection, schedule: Q01DX009 (ip), vehicle: saline
[12] = dose: 25.0 mg/kg/injection, schedule: Q01DX009 (ip), vehicle: saline
[13] = dose: 50.0 mg/kg/injection, schedule: Q01DX009 (ip), vehicle: Klucel (hydroxypropylcellulose) (HPC)
[14] = dose: 12.5 mg/kg/injection, schedule: Q01DX009 (ip), vehicle: saline with Tween-80
[15] = dose: 25.0 mg/kg/injection, schedule: Q01DX009 (ip), vehicle: saline with Tween-80
[16] = dose: 50.0 mg/kg/injection, schedule: Q01DX009 (ip), vehicle: saline with Tween-80
[17] = dose: 100.0 mg/kg/injection, schedule: Q04DX003 (ip), vehicle: saline with Tween-80
[18] = dose: 200.0 mg/kg/injection, schedule: Q04DX003 (ip), vehicle: saline with Tween-80
[19] = dose: 400.0 mg/kg/injection, schedule: Q04DX003 (ip), vehicle: saline with Tween-80

## NC(CCC(=O)NC(CS)C(=O)NCC(=O)O)C(=O)O (stereo not drawn)
[1]
  T/C: 124 % of control
[2]
  T/C: 98 % of control
dose: 200.0 mg/kg/injection, schedule: Q01DX009 (ip), vehicle: saline
  T/C: 98 % of control
dose: 400.0 mg/kg/injection, schedule: Q01DX009 (ip), vehicle: saline
  T/C: 100 % of control

## C=CCOc1cccc(OCC=C)c1C
[3]
  T/C: 106 % of control
[4]
  T/C: 97 % of control

## CC(C)NNC(C)Cc1ccccc1 (stereo not drawn)
[5]
  T/C: 91 % of control
dose: 3.12 mg/kg/injection, schedule: Q01DX009 (ip), vehicle: Klucel (hydroxypropylcellulose) (HPC)
  T/C: 86 % of control
dose: 6.25 mg/kg/injection, schedule: Q01DX009 (ip), vehicle: Klucel (hydroxypropylcellulose) (HPC)
  T/C: 86 % of control
dose: 12.5 mg/kg/injection, schedule: Q01DX009 (ip), vehicle: Klucel (hydroxypropylcellulose) (HPC)
  T/C: 91 % of control
[6]
  T/C: 97 % of control

## c1ccc2c(c1)ccc1c[n+]3ccccc3cc12
[7]
  T/C: 114 % of control
[8]
  T/C: 100 % of control
dose: 1.0 mg/kg/injection, schedule: Q01DX009 (ip), vehicle: saline
  T/C: 97 % of control

## CC(=O)C1(O)Cc2c(O)c3c(c(O)c2C(OC2CC(N)C(O)C(C)O2)C1)C(=O)c1ccccc1C3=O (stereo not drawn)
dose: 0.16 mg/kg/injection, schedule: Q01DX001 (ip), vehicle: water
  T/C: 117 % of control
dose: 0.31 mg/kg/injection, schedule: Q01DX001 (ip), vehicle: water
  T/C: 121 % of control
dose: 0.63 mg/kg/injection, schedule: Q01DX001 (ip), vehicle: water
  T/C: 123 % of control
dose: 1200.0 micrograms/kg/injection, schedule: Q04DX003 (ip), vehicle: water
  T/C: 94 % of control

## NC(=O)c1ccccc1NC(=O)c1ccccc1Cl
[9]
  T/C: 100 % of control
dose: 200.0 mg/kg/injection, schedule: Q01DX009 (ip), vehicle: Klucel (hydroxypropylcellulose) (HPC)
  T/C: 97 % of control
dose: 400.0 mg/kg/injection, schedule: Q01DX009 (ip), vehicle: Klucel (hydroxypropylcellulose) (HPC)
  T/C: 102 % of control

## CCCCOB(/C=C/Sc1ccccc1)OCCCC
[10]
  T/C: 101 % of control
[11]
  T/C: 119 % of control
[12]
  T/C: 100 % of control
dose: 35.0 mg/kg/injection, schedule: Q01DX009 (ip), vehicle: saline
  T/C: 117 % of control
[13]
  T/C: 102 % of control
dose: 300.0 mg/kg/injection, schedule: Q01DX009 (ip), vehicle: Klucel (hydroxypropylcellulose) (HPC)
  T/C: 101 % of control

## Cc1ccc(N2C(=O)CC(Sc3ccccc3N)C2=O)cc1 (stereo not drawn)
[6]
  T/C: 97 % of control
[13]
  T/C: 91 % of control
[9]
  T/C: 86 % of control and 91 % of control

## CC1(C)N=C(N)N=C(N)N1c1ccc(CCCCc2ccc(Cl)c(S(=O)(=O)F)c2)c(Cl)c1
dose: 8.0 mg/kg/injection, schedule: Q01DX009 (ip), vehicle: saline
  T/C: 105 % of control
dose: 12.0 mg/kg/injection, schedule: Q01DX009 (ip), vehicle: saline
  T/C: 114 % of control
dose: 18.0 mg/kg/injection, schedule: Q01DX009 (ip), vehicle: saline
  T/C: 118 % of control

## CCCCOCN(COCCCC)C(C)Cc1ccccc1 (stereo not drawn)
[14]
  T/C: 95 % of control and 100 % of control
[15]
  T/C: 98 % of control and 104 % of control
[16]
  T/C: 99 % of control and 105 % of control
[3]
  T/C: 106 % of control and 110 % of control
[4]
  T/C: 90 % of control and 100 % of control

## CC(C)(C)n1cc(C(=O)c2ccccc2)cc1-c1ccccc1
[17]
  T/C: 97 % of control
[18]
  T/C: 100 % of control
[19]
  T/C: 100 % of control

## CN(C)CCC[N+]1([O-])c2ccccc2CCc2ccccc21
dose: 4.68 mg/kg/injection, schedule: Q01DX009 (ip), vehicle: saline
  T/C: 97 % of control
dose: 9.37 mg/kg/injection, schedule: Q01DX009 (ip), vehicle: saline
  T/C: 118 % of control
dose: 18.75 mg/kg/injection, schedule: Q01DX009 (ip), vehicle: saline
  T/C: 95 % of control
dose: 37.5 mg/kg/injection, schedule: Q01DX009 (ip), vehicle: saline
  T/C: 100 % of control
dose: 75.0 mg/kg/injection, schedule: Q04DX003 (ip), vehicle: saline
  T/C: 96 % of control

## COC(=O)C(CSC(c1ccccc1)(c1ccccc1)c1ccccc1)NC(=O)C(CC(N)=O)NC(=O)OCc1ccccc1 (stereo not drawn) (Cbz-Asn-Cys(Trt)-OMe; configuration not given here)
dose: 12.5 mg/kg/injection, schedule: Q01DX009 (ip), vehicle: distilled water + Tween-80
  T/C: 108 % of control and 110 % of control
dose: 25.0 mg/kg/injection, schedule: Q01DX009 (ip), vehicle: distilled water + Tween-80
  T/C: 102 % of control and 117 % of control
dose: 50.0 mg/kg/injection, schedule: Q01DX009 (ip), vehicle: distilled water + Tween-80
  T/C: 109 % of control
dose: 100.0 mg/kg/injection, schedule: Q01DX009 (ip), vehicle: distilled water + Tween-80
  T/C: 113 % of control
dose: 200.0 mg/kg/injection, schedule: Q01DX009 (ip), vehicle: distilled water + Tween-80
  T/C: 116 % of control

## N#CCN1CCCCC1
dose: 0.39 mg/kg/injection, schedule: Q01DX009 (ip), vehicle: saline
  T/C: 96 % of control
dose: 0.78 mg/kg/injection, schedule: Q01DX009 (ip), vehicle: saline
  T/C: 100 % of control
dose: 1.56 mg/kg/injection, schedule: Q01DX009 (ip), vehicle: saline
  T/C: 102 % of control

## Cc1cc(C)nc(NS(=O)(=O)c2ccc(N=Nc3nc4[nH]c(N)nc(=S)c4[nH]3)cc2)n1
dose: 0.19 mg/kg/injection, schedule: Q01DX009 (ip), vehicle: Klucel (hydroxypropylcellulose) (HPC)
  T/C: 115 % of control
dose: 0.39 mg/kg/injection, schedule: Q01DX009 (ip), vehicle: Klucel (hydroxypropylcellulose) (HPC)
  T/C: 111 % of control
dose: 0.78 mg/kg/injection, schedule: Q01DX009 (ip), vehicle: Klucel (hydroxypropylcellulose) (HPC)
  T/C: 105 % of control
[5]
  T/C: 102 % of control

## O=C(COc1ccc(Cl)cc1)Nc1cccnc1
[6]
  T/C: 90 % of control
[13]
  T/C: 94 % of control

## O=c1[nH]c(=O)n2n1CC(Br)C(Br)C2 (stereo not drawn)
[17]
  T/C: 97 % of control
[18]
  T/C: 102 % of control
[19]
  T/C: 110 % of control

## NCC1OC(OC2C(N)CC(N)C(O)C2OC2OC(CO)C(O)C2O)C(N)C(O)C1O (stereo not drawn)
[11]
  T/C: 93 % of control
[12]
  T/C: 100 % of control
[1]
  T/C: 93 % of control
[2]
  T/C: 96 % of control

## CN(N=O)C(N)=O
dose: 3.13 mg/kg/injection, schedule: Q01DX009 (ip), vehicle: saline
  T/C: 114 % of control
[10]
  T/C: 116 % of control

## CC(C)=CCC/C(C)=C\CCl
[15]
  T/C: 105 % of control
[16]
  T/C: 101 % of control

## Cc1ccc(C(=O)CCCCl)c(C)c1
[16]
  T/C: 100 % of control
[3]
  T/C: 101 % of control
[4]
  T/C: 108 % of control

## CC1CN1CC(O)C(O)CN1CC1C (stereo not drawn)
[7]
  T/C: 100 % of control
dose: 0.4 mg/kg/injection, schedule: Q01DX009 (ip), vehicle: saline
  T/C: 110 % of control
[8]
  T/C: 107 % of control and 102 % of control
dose: 0.6 mg/kg/injection, schedule: Q01DX009 (ip), vehicle: saline
  T/C: 118 % of control
dose: 0.63 mg/kg/injection, schedule: Q01DX009 (ip), vehicle: saline
  T/C: 150 % of control
dose: 0.8 mg/kg/injection, schedule: Q01DX009 (ip), vehicle: saline
  T/C: 110 % of control
dose: 0.9 mg/kg/injection, schedule: Q01DX009 (ip), vehicle: saline
  T/C: 153 % of control
dose: 1.25 mg/kg/injection, schedule: Q01DX009 (ip), vehicle: saline
  T/C: 93 % of control
dose: 2.0 mg/kg/injection, schedule: Q01DX009 (ip), vehicle: saline
  T/C: 156 % of control and 151 % of control
dose: 2.5 mg/kg/injection, schedule: Q01DX009 (ip), vehicle: saline
  T/C: 106 % of control

## CCC(=O)/C=C/C1C(C)=CCCC1(C)C (stereo not drawn)
[16]
  T/C: 104 % of control
[3]
  T/C: 102 % of control

## Nc1c([N+](=O)[O-])ccc2ccccc12
[17]
  T/C: 108 % of control
[18]
  T/C: 91 % of control
[19]
  T/C: 100 % of control

## Cc1cc(=O)n2c3c(c4c(cc13)c(CN(C)C)cc(=O)n4C)OC2
dose: 6.25 mg/kg/injection, schedule: Q01DX009 (ip), vehicle: saline with Tween-80
  T/C: 103 % of control
[14]
  T/C: 101 % of control
[15]
  T/C: 113 % of control
[16]
  T/C: 117 % of control
